Assay results as given in PubChem BioAssay AID330 (DTP/NCI, 2004).
“And” between values parts separate entries of the source, which are not always exact repeats. Identical values can stand only once. Toxic doses and inconclusive results are not listed. Rule for the calls: active = survival T/C of 150% or more; inactive = T/C below 125% in these data.

Test system: P388 leukemia ip, CD2F1 mice, survival T/C
Experiment: NCI In Vivo Anticancer Drug Screen. Data for tumor model P388 Leukemia (intraperitoneal) in CD2F1 (CDF1) mice
Settings: endpoint: median survival time, higher = longer survival
Summary of the method: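 Mice carrying the transplanted tumor received test compound or vehicle. Survival was recorded in each group, and the value is the treated-group measurement divided by that of the vehicle-treated control group.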

[1] = dose: 50.0 mg/kg/injection, schedule: Q01DX005 (ip), vehicle: Klucel (hydroxypropylcellulose) (HPC)
[2] = dose: 100.0 mg/kg/injection, schedule: Q01DX005 (ip), vehicle: Klucel (hydroxypropylcellulose) (HPC)
[3] = dose: 200.0 mg/kg/injection, schedule: Q01DX005 (ip), vehicle: Klucel (hydroxypropylcellulose) (HPC)
[4] = dose: 100.0 mg/kg/injection, schedule: Q04DX003 (ip), vehicle: saline with Tween-80
[5] = dose: 200.0 mg/kg/injection, schedule: Q04DX003 (ip), vehicle: saline with Tween-80
[6] = dose: 12.5 mg/kg/injection, schedule: Q01DX005 (ip), vehicle: Klucel (hydroxypropylcellulose) (HPC)
[7] = dose: 25.0 mg/kg/injection, schedule: Q01DX005 (ip), vehicle: Klucel (hydroxypropylcellulose) (HPC)
[8] = dose: 50.0 mg/kg/injection, schedule: Q01DX009 (ip), vehicle: saline
[9] = dose: 100.0 mg/kg/injection, schedule: Q01DX009 (ip), vehicle: saline
[10] = dose: 15.0 mg/kg/injection, schedule: Q01DX005 (ip), vehicle: saline with Tween-80
[11] = dose: 30.0 mg/kg/injection, schedule: Q01DX005 (ip), vehicle: saline with Tween-80
[12] = dose: 60.0 mg/kg/injection, schedule: Q01DX005 (ip), vehicle: saline with Tween-80
[13] = dose: 200.0 mg/kg/injection, schedule: Q01DX009 (ip), vehicle: saline
[14] = dose: 25.0 mg/kg/injection, schedule: Q01DX009 (ip), vehicle: saline

Measured: T/C

COc1ccc(CSC(=S)Nc2ccc(C)c(Cl)c2)cc1
inactive: dose: 50.0 mg/kg/injection, schedule: Q01DX009 (ip), vehicle: suspension in saline 106 % of control | dose: 100.0 mg/kg/injection, schedule: Q01DX009 (ip), vehicle: suspension in saline 102 % of control | dose: 200.0 mg/kg/injection, schedule: Q01DX009 (ip), vehicle: suspension in saline 111 % of control

CCc1c2c(cc3c1[nH]c1ccccc13)C(=O)N(c1ccc(OC)cc1)C2=O
inactive: [1] 92 % of control | [2] 91 % of control | [3] 90 % of control

Cc1c(-c2cnccn2)ssc1=S
inactive: dose: 50.0 mg/kg/injection, schedule: Q01DX005 (ip), vehicle: saline with Tween-80 103 % of control | dose: 100.0 mg/kg/injection, schedule: Q01DX005 (ip), vehicle: saline with Tween-80 99 % of control | dose: 200.0 mg/kg/injection, schedule: Q01DX005 (ip), vehicle: saline with Tween-80 103 % of control

Nc1cc2c3c(cccc3c1)C(=O)N2
inactive: dose: 100.0 mg/kg/injection, schedule: Q01DX001 (ip), vehicle: saline with Tween-80 106 % of control | dose: 200.0 mg/kg/injection, schedule: Q01DX001 (ip), vehicle: saline with Tween-80 106 % of control

CCOC(=O)c1c(C)[nH]c(=O)c(C#N)c1NC1CCCCC1
inactive: dose: 25.0 mg/kg/injection, schedule: Q04DX002 (ip), vehicle: saline with Tween-80 98 % of control | dose: 50.0 mg/kg/injection, schedule: Q04DX002 (ip), vehicle: saline with Tween-80 100 % of control | dose: 100.0 mg/kg/injection, schedule: Q04DX002 (ip), vehicle: saline with Tween-80 92 % of control

COc1ccc(CCN2C(=O)CSC2=S)cc1OC
inactive: dose: 100.0 mg/kg/injection, schedule: Q01DX009 (ip), vehicle: saline with Tween-80 100 % of control | [4] 90 % of control | dose: 200.0 mg/kg/injection, schedule: Q01DX009 (ip), vehicle: saline with Tween-80 90 % of control | [5] 90 % of control | dose: 400.0 mg/kg/injection, schedule: Q04DX003 (ip), vehicle: saline with Tween-80 90 % of control

[O-][n+]1c2ccccc2cc2c1c1ccccc1n2O
inactive: [6] 113 % of control | [7] 107 % of control | [1] 106 % of control and 93 % of control

CCc1c(C)[nH]c2ccc(N)cc12
inactive: dose: 25.0 mg/kg/injection, schedule: Q04DX003 (ip), vehicle: saline with Tween-80 99 % of control | dose: 50.0 mg/kg/injection, schedule: Q04DX003 (ip), vehicle: saline with Tween-80 93 % of control | [4] 93 % of control | [5] 110 % of control

CN1C(N)=NC(c2ccccc2)=CC1(C)c1ccccc1 (stereo unspecified)
inactive: dose: 6.25 mg/kg/injection, schedule: Q01DX005 (ip), vehicle: Klucel (hydroxypropylcellulose) (HPC) 101 % of control | [6] 99 % of control | [7] 108 % of control

CN1CCN(c2ccncc2S(=O)(=O)N2CCCC2)CC1
inactive: [8] 107 % of control | [9] 104 % of control

NC(=O)C1C(=O)NC(=O)C1=O (stereo unspecified)
inactive: [10] 100 % of control | [11] 101 % of control | [12] 109 % of control and 114 % of control

N#CC(C#N)=C1SCCCS1
inactive: [8] 105 % of control | [9] 95 % of control | [13] 98 % of control

CCn1c2nc(=O)n(C)c(=O)c-2cc2cc(C)ccc21
inactive: dose: 12.5 mg/kg/injection, schedule: Q01DX009 (ip), vehicle: saline with Tween-80 92 % of control | dose: 25.0 mg/kg/injection, schedule: Q01DX009 (ip), vehicle: saline with Tween-80 101 % of control | dose: 50.0 mg/kg/injection, schedule: Q01DX009 (ip), vehicle: saline with Tween-80 109 % of control

CC(=O)CC(C)(C)C1CCCCC1
inactive: dose: 12.5 mg/kg/injection, schedule: Q01DX009 (ip), vehicle: water 116 % of control | dose: 25.0 mg/kg/injection, schedule: Q01DX009 (ip), vehicle: water 108 % of control | dose: 50.0 mg/kg/injection, schedule: Q01DX009 (ip), vehicle: water 103 % of control | dose: 100.0 mg/kg/injection, schedule: Q01DX009 (ip), vehicle: water 107 % of control | dose: 200.0 mg/kg/injection, schedule: Q01DX009 (ip), vehicle: water 104 % of control

O=c1[nH]c2cc([N+](=O)[O-])ccc2nc1/C=C(\O)c1cccc([N+](=O)[O-])c1
inactive: dose: 30.0 mg/kg/injection, schedule: Q01DX005 (ip), vehicle: Klucel + Tween-80 96 % of control | dose: 60.0 mg/kg/injection, schedule: Q01DX005 (ip), vehicle: Klucel + Tween-80 88 % of control and 90 % of control | dose: 120.0 mg/kg/injection, schedule: Q01DX005 (ip), vehicle: Klucel + Tween-80 87 % of control | dose: 240.0 mg/kg/injection, schedule: Q01DX005 (ip), vehicle: Klucel + Tween-80 89 % of control

O=C1SC(Nc2cccc([N+](=O)[O-])c2)/C(=N\N=C2/C(Nc3cccc([N+](=O)[O-])c3)SC(=O)N2Cc2ccccc2)N1Cc1ccccc1 (stereo unspecified)
inactive: [1] 92 % of control | [2] 87 % of control

O=C1CN(CN2CCOCC2)C(=O)CN1CN1CCOCC1
inactive: [14] 115 % of control | [8] 114 % of control

C=C(Cl)CNc1ccccc1C(=O)O
inactive: dose: 25.0 mg/kg/injection, schedule: Q04DX003 (ip), vehicle: Klucel (hydroxypropylcellulose) (HPC) 109 % of control and 97 % of control | dose: 50.0 mg/kg/injection, schedule: Q04DX003 (ip), vehicle: Klucel (hydroxypropylcellulose) (HPC) 109 % of control and 110 % of control | dose: 100.0 mg/kg/injection, schedule: Q04DX003 (ip), vehicle: Klucel (hydroxypropylcellulose) (HPC) 103 % of control and 95 % of control | dose: 200.0 mg/kg/injection, schedule: Q04DX003 (ip), vehicle: Klucel (hydroxypropylcellulose) (HPC) 94 % of control

COc1cc(C2c3cc4c(cc3OC(O)C2C)OCO4)cc(OC)c1OC (stereo unspecified)
inactive: [10] 99 % of control | [11] 101 % of control | [12] 99 % of control and 112 % of control | dose: 120.0 mg/kg/injection, schedule: Q01DX005 (ip), vehicle: saline with Tween-80 117 % of control

Cc1nc2c(n1C)C(=O)c1nc[nH]c(=O)c1C2=O
inactive: dose: 1.75 mg/kg/injection, schedule: Q01DX005 (ip), vehicle: water 102 % of control | dose: 3.5 mg/kg/injection, schedule: Q01DX005 (ip), vehicle: water 92 % of control | dose: 7.0 mg/kg/injection, schedule: Q01DX005 (ip), vehicle: water 96 % of control | dose: 14.0 mg/kg/injection, schedule: Q01DX005 (ip), vehicle: water 96 % of control

COc1ccc(C)cc1NC(=S)NC(=O)/C=C/c1ccccc1
inactive: [14] 97 % of control | [8] 87 % of control | [9] 96 % of control | [13] 98 % of control

C=C(COC(=O)/C=C\C)C(=O)OCC
inactive: [8] 106 % of control | [9] 99 % of control | [13] 106 % of control

CC1CN(Cc2ccccc2)CCC1N1CCCCC1 (stereo unspecified)
inactive: dose: 50.0 mg/kg/injection, schedule: Q01DX005 (ip), vehicle: saline 99 % of control | dose: 100.0 mg/kg/injection, schedule: Q01DX005 (ip), vehicle: saline 100 % of control

O=C1CSC(c2ccsc2)N1c1nncs1 (stereo unspecified)
inactive: dose: 60.0 mg/kg/injection, schedule: Q01DX005 (ip), vehicle: Klucel (hydroxypropylcellulose) (HPC) 101 % of control | dose: 120.0 mg/kg/injection, schedule: Q01DX005 (ip), vehicle: Klucel (hydroxypropylcellulose) (HPC) 100 % of control | dose: 240.0 mg/kg/injection, schedule: Q01DX005 (ip), vehicle: Klucel (hydroxypropylcellulose) (HPC) 108 % of control

CC(=O)OC1CCC2(C)C(=CCC3C2CCC2(C)C3CC3ON=C(C)C32)C1 (stereo unspecified)
inactive: [6] 101 % of control | [7] 99 % of control | [1] 98 % of control | [2] 86 % of control | [3] 86 % of control

C/C=C1/CN2CCC34c5ccccc5N(C(C)=O)C3C(CO)C1CC24 (stereo unspecified)
inactive: dose: 11.25 mg/kg/injection, schedule: Q01DX009 (ip), vehicle: saline with Tween-80 106 % of control | dose: 22.5 mg/kg/injection, schedule: Q01DX009 (ip), vehicle: saline with Tween-80 100 % of control | dose: 45.0 mg/kg/injection, schedule: Q01DX009 (ip), vehicle: saline with Tween-80 102 % of control | dose: 90.0 mg/kg/injection, schedule: Q01DX009 (ip), vehicle: saline with Tween-80 100 % of control
